The text below walks through data of PMC8482806, “A Novel Blood-Brain Barrier-Permeable Chemotherapeutic Agent for the Treatment of Glioblastoma” (Cureus, 2021).

Data set [1] is described as follows: [14C]-QBS10072S distribution by quantitative whole-body autoradiography in mice with intracranial LN229 tumors. The settings on record: 5 mg/kg IV. Format: in vivo, mouse. The procedure: Athymic mice with intracranial implanted LN229 cells received a single IV dose of 5 mg/kg and 200 μCi/kg [14C]-QBS10072S into the tail vein using the formulation described above. Animals (one per time point) were sacrificed one, eight, and 24 hours post-dose, and frozen in a hexane/solid carbon dioxide bath for at least 10 minutes. The carcasses were processed as described for quantitative whole-body autoradiography. Briefly, sagittal sections (~ 40 μm thick) were cut using a microtome, mounted, and exposed to a [14C]-sensitive phosphor imaging plate for four days. The images were scanned and quantitated by image densitometry using MCID image analysis software. The concentrations of radioactivity were expressed as the μg equivalents of test article per gram sample (μg equiv/g). The upper and lower limits of quantification were 550 and 0.008 μg equiv/g, respectively (QPS, Newark, DE).

Data set [2] relates to phosphorylation of H2AX in LN229 cells. Briefly: Phosphorylation of γ-H2AX assay (immunoblot), LN229. The data set is classed as cell-based, human. The settings on record: LN229, 16 hours.
The test system of data set [3] is LLC-PK1 inducible LAT1-expressing cell line. Briefly: Modified clonogenic cell viability assay (CellTiter-Glo), LLC-PK1 inducible LAT1-expressing cells. The settings on record: for EC50: Sus scrofa, read-out: EC50, suppression of viability. The data set is classed as cell-based. On the procedure:
In vitro activity of QBS10072S was assessed using a modified clonogenic cell viability assay in 96-well clear-bottom plates. For the LLC-PK1 inducible LAT1-expressing cell line, 1000 cells/well were plated and cells were treated with either butyrate alone (non-induced) or with both butyrate and doxycycline (induced) as described above. For GBM cell lines, 2000 cells/well were plated. On day 2 (GBM) or day 3 (LLC-PK1) after original plating, cells were washed twice with PBS and incubated with 50 μL of various concentrations of QBS10072S in PBS in at least quadruplicate. After 30 minutes at 37°C, 200 μL of growth medium was added to each well. Clonal populations were allowed to grow until the control wells (mock treatment) were near confluence (7 to 10 days). At this point, 170 μL media were removed and 60 μL CellTiter-Glo® (Promega, Madison, WI) were added to each well. Plates were placed on an orbital shaker for three minutes to lyse the cells and then incubated for an additional 10 minutes at RT to stabilize the luminescent signal. Luminescence was recorded using an EnSpire® Multimode Plate Reader (Perkin Elmer). Background (luminescence from wells incubated with 100 μM melphalan or lomustine) was subtracted and data were normalized to the control. EC50s were determined by non-linear regression using GraphPad Prism.

Where two headings read alike, the source gives them in different places.

On to `Cc1ccc(N(CCCl)CCCl)cc1C[C@H](N)CC(=O)O` [QBS10072S, (+)-(3S)-amino-4-[5-[bis(2-chloroethyl)amino]-2-methyl-phenyl]butanoic acid], for which the figures for the “level in brain tumor as % of blood levels” value in data set [1] (1 hour post-dose), in data set [1] (8 hours post-dose) and in data set [1] (24 hours post-dose) were 89%, 73% and 37%, respectively. The “phosphorylation of H2AX” value in data set [2] is “dose-dependent phosphorylation of H2AX”. Besides, the EC50 turned out to be 1 µM in data set [3] (LLC-PK1, induced, high LAT1 expressing cells) and 5.5 µM in data set [3] (LLC-PK1, non-induced cells, low endogenous LAT1). Further, the “potency induced vs. non-induced cells” value in data set [3] (high LAT1 vs. non-induced) came to 5.5 times.
